Test results as given in US11034662B2, “Substituted phenothiazines as mitochondrial agents” (ARIZONA BOARD OF REGENTS ON BEHALF OF ARIZONA STATE …, priority 2015, dated 2021).

Experiments:
[1] = system: frataxin; experiment: Frataxin protein expression (Western blot) in FRDA lymphocytes; format: cell-based, human; settings: for level of frataxin (western blot): FRDA lymphocytes, FIG. 9
Experimental: Human mitochondrial disease cell line, Friedreich's ataxia lymphocytes (GM15850) was obtained from Coriell Cell Repositories (Camden, N.J.). Lymphocytes were cultured in RPMI-1640 medium (Gibco, Life Technologies, Grand Island, N.Y.) with 15% fetal calf serum, 2 mM glutamine (HyClone, South Logan, Utah) and 1% penicillin-streptomycin antibiotic supplement (Cellgro, Manassas, Va.). Cells were passaged every other day to maintain them in log phase growth and kept at a nominal concentration of 5-10×10^5 cell/mL. A CoQ10 deficient lymphocyte cell line (GM17932) was obtained from Coriell Cell Repositories. A nutrient sensitized screening strategy to identify methylene blue analogues that function within the mitochondrial respiratory chain was used by growing the CoQ10-deficient or FRDA lymphocytes in galactose containing media to force energy production predominantly through oxidative phosphorylation rather than glycolysis.^1-4 The lymphocytes were cultured in RPMI 1640 glucose free medium (Gibco, Grand Island, N.Y.) supplemented with 25 mM galactose, 2 mM glutamine and 1% penicillin-streptomycin, and 10% dialyzed fetal bovine serum (FBS) (<0.5 μg/mL) (Gemini Bio-Product, West Sacramento, Calif.).
Immortalized normal and FRDA lymphocyte cell lines were seeded at 500,000 cells per/mL (5 mL) in T-25 flask. Cultures were treated with the test compounds and incubated for 24 h. Cells were harvested by centrifugation, washed with saline buffer and then were lysed using 200 μL of lysis buffer (1% triton X-100, 0.1% SDS, Tris-HCl (50 Mm) pH 7.4, 150 mM NaCl, 0.5% sodium deoxycholate, 0.1 mM EDTA) with protease inhibitors (protease cocktail inhibitors (Roche Applied Science) and 1 mM phenylmethylsulfonyl fluoride (Sigma), and incubated on ice for 30 min with periodical mixing. These samples were cleared of insoluble material by centrifugation at 20,000×g for 10 min at 4° C. Total protein concentration was measured by the BCA kit (Thermo Fisher Scientific). NuPAGE LDS Sample Buffer (4×) and NuPAGE Reducing Agent (10×) was added the lysate and they were denatured at 95° C. for 5 min, then equal amounts of lysates ([…]) were used for immunoblotting. Samples were resolved on a 4%-12% SDS-polyacrylamide Bis-Tris gels (Invitrogen) according to the manufacturer's recommendations and then proteins were transferred to nitrocellulose membranes. After blocking with Superblock-TBS (Thermo Fisher Scientific) for 1 hour to inhibit non-specific binding the blot was incubated with anti-frataxin monoclonal antibody (5 μg/mL) (18A5DB1) (Novex®) (Life technologies) overnight at 4° C. to detect endogenous frataxin in FRDA and normal lymphocytes. Following three 5-min washes with TBST, the blots were incubated with horseradish peroxidase-linked secondary […] antibody IgGs (1:10,000, Sigma, in Superblock-TBS) at room temperature for 1 hr. The blots were washed three times for 5 min with TBST, rinsed with deionized H2O, and developed with enhanced chemiluminescence (ECL) (BioRad Chemi-Doc) using West Pico Chemiluminescent Substrate (Pierce Biotechnology).

[2] = system: bovine heart mitochondrial NADH oxidase activity (complexes I, III and IV); experiment: NADH oxidase activity in bovine heart mitochondria; format: biochemical; settings: complex I completely blocked by rotenone; FIG. 6
Experimental: The effect of the methylene blue analogues on the activities of complexes I, III and IV within the respiratory chain was evaluated using bovine heart mitochondria during the oxidation of their respective substrate (NADH) as described previously. Briefly, a small scale preparation of bovine heart mitochondria was prepared as described before (Smith, A. L (1967), Methods Enzymol. 10, 81). Bovine heart submitochondrial particles (SMPs) were prepared as described by Matsuno-Yagi and stored in a buffer containing 0.25 M sucrose and 10 mM Tris-HCl, pH 7.4, at −80° C. (Matsuno-Yagi, A.; Hatefi, Y. J. (1985) J. Biol. Chem. 260, 11424). SMPs were diluted to 0.5 mg/mL. Mitochondrial complexes I, III, and IV activity were assayed at 30 C and monitored spectrophotometrically using a Beckman Coulter DU-530 (340 nm, ε=6.22 mM^−1 cm^−1). NADH oxidase activity was determined in 50 mM Hepes buffer containing 5 mM MgCl2, pH 7.5, in a total volume of 2.5 mL. The final mitochondrial protein concentration was 30 μg/mL. The initial rates of NADH oxidation were calculated from the linear portion of the traces.

Compound: CCCCCCCCCCCCCCCN(CCCC)c1ccc2nc3ccc(=O)cc-3sc2c1 [compound 33, 7-(butyl(pentadecyl)amino)-3H-phenothiazin-3-one]
- level of frataxin (western blot) ([1]; higher concentration): significantly increased
- level of frataxin (western blot) ([1]; lower concentration): significantly increased
- frataxin levels ([1]; general statement, concentration not given): significantly increased

Compound: CN(C)c1ccc2nc3ccc(=[N+](C)C)cc-3sc2c1 [Methylene blue, 3,7-bis(dimethylamino)phenazathionium chloride, reference compound]
- level of frataxin (western blot) ([1]; higher concentration): did not
- level of frataxin (western blot) ([1]; lower concentration): slightly increased

Compound: CCCCCCCCCCCCCCCCCc1cc2nc3ccc(N(C)C)cc3sc-2cc1=[N+](C)C [compound 5, N-(7-(dimethylamino)-2-heptadecyl-3H-phenothiazin-3-ylidene)-N-methylmethan-aminium iodide]
- effect on NADH oxidase activity: redirection of electron flow in the respiratory chain [2]: able redirect electron flow in the respiratory chain
